Experimental findings from patent US20100015058A1, “RADIOLABELED BBN-RGD HETERODIMERS FOR CANCER TARGETING” (STANFORD UNIVERSITY, priority 2008, published 2010) are described below.

One series relates to PC-3 tumor cells. As to the kind of experiment: Cell uptake assay on PC-3 tumor cells. It counts as cell-based, human. Conditions: PC-3 cells, 37° C., 15 min incubation. The essentials: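 PC-3 cells incubated with ^18F- or ^68Ga-labeled tracers (about 2 μCi or 18 kBq/well) at 37° C for 5–120 min, washed, then lysed or trypsinized and gamma-counted. Uptake given as % added dose, decay-corrected for ^68Ga; efflux measured after 1 h loading then 15–60 min in medium.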

Another series concerns T47D tumor cells. As to the kind of experiment: Cell uptake assay on T47D tumor cells. Conditions: 120 min, 37° C., n=3. It counts as cell-based, human. As to the method: The cells suspensions were collected and measured in a y counter (Packard, Meriden, Conn.). The cell uptake was expressed as the percent added dose (% AD) after decay correction. Experiments were performed twice with triplicate wells.

The nature of series [1]: Small-animal PET of PC-3 tumor-bearing mice. Conditions: male, athymic nude, mouse, in vivo, iv, total radioactivity, 3.7 MBq.
Series [2] can be described thus: Small-animal PET of MDA-MB-435 tumor-bearing mice. To be noted: female, athymic nude, mouse, in vivo, iv, total radioactivity.
Procedure: The MDA-MB435 tumor model was established by orthotopic injections of 5×10^6 cells into the right mammary fat pad of female athymic nude mice. […] The mice were subjected to microPET studies when the tumor volume reached 100-300 mm^3 (2-3 weeks for MDA-MB-435, and 4-5 wk for T47D).
For static PET, 5-min scans were acquired at 30 min, 1 h, and 2 h after injection. For dynamic PET, 30-min scans (1×30 s, 4×1 min, 1×1.5 min, 4×2 min, 5×3 min; total 15 frames) were started 1 min after injection, and two 5-min static PET images were also acquired at 1 h and 2 h after injection. The images were reconstructed using a two-dimensional ordered subsets expectation maximum (OSEM) algorithm and no correction was applied for attenuation or scatter. […] For each small-animal PET scan, regions of interest (ROIs) were drawn over the tumor, normal tissue, and major organs using vendor software ASI Pro 5.2.4.0 on decay-corrected whole-body coronal images. The maximum radioactivity concentrations (accumulation) within a tumor or an organ were obtained from mean pixel values within the multiple ROI volume, and were converted to megabecquerels per milliliter per minute using a conversion factor. These values were then divided by the administered activity to obtain (assuming a tissue density of 1 g/ml) an image ROI-derived percent injected dose per gram (% ID/g).
(§1) Quantification of tumor and major organ activity accumulation in the microPET scans was realized by measuring the regions of interest (ROIs) that encompassing the entire organ on the coronal images.
Series [3] is described as follows: MicroPET of T47D tumor-bearing mice. It counts as in vivo. Conditions: female, nude, mouse, T47D tumor, iv, total radioactivity, orthotopic model.
Source text: The MDA-MB-231, MDA-MB468, BT474, BT-20, T47D, MCF-7 and MDA-MB435 human breast cancer cell lines were all obtained from the American Type Culture Collection (ATCC) and maintained under standard conditions according to ATCC. The MDA-MB435 tumor model was established by orthotopic injections of 5×10^6 cells into the right mammary fat pad of female athymic nude mice. For T47D tumor model establishment, the female nude mice were first subcutaneously implanted with 60-day release 17β-estradiol pellets (Innovative Research of America, Sarasota, Fla.) in the left neck. One day after the estradiol implantation, 1×10^7 T47D cells were orthotopically injected into the right mammary fat pad of the nude mice. The mice were subjected to microPET studies when the tumor volume reached 100-300 mm^3 (2-3 weeks for MDA-MB-435, and 4-5 wk for T47D).
as §1
The mark [4] stands for this setting: PC-3 tumor uptake, dynamic scan.
Where [5] appears, read: PC-3 tumor uptake, static scan after dynamic scan.

For `CSCC[C@H](NC(=O)[C@H](CC(C)C)NC(=O)[C@H](Cc1c[nH]cn1)NC(=O)CNC(=O)[C@@H](NC(=O)[C@H](C)NC(=O)[C@H](Cc1c[nH]c2ccccc12)NC(=O)[C@H](CCC(N)=O)NC(=O)CCCCCNC(=O)CC[C@H](NC(=S)Nc1ccc(C[C@H]2CN(CC(=O)O)CCN(CC(=O)O)CCN2CC(=O)O)cc1)C(=O)NCCCC[C@@H]1NC(=O)[C@@H](Cc2ccc(O)cc2)NC(=O)[C@H](CC(=O)O)NC(=O)CNC(=O)[C@H](CCCNC(=N)N)NC1=O)C(C)C)C(N)=O` [^68Ga-NOTA-RGD-BBN, metal not drawn], the “cell uptake (plateau)” value in the series with PC-3 tumor cells was found to be 1.69±0.29 % AD. Further, the “T47D cell uptake value” in the series on T47D tumor cells amounted to 2.42±0.23 % AD. Further, the tissue uptake at 1 h in series [1] (10 mg/kg, PC-3 tumor uptake with RGD blocking, 1 h, co-injected c(RGDyK) 10 mg/kg) was found to be 2.08 ± 0.65 %ID/g; in series [1] (PC-3 tumor uptake), 5.26 ± 0.32 %ID/g; in series [1] (setting [5]), 4.47 %ID/g; in series [1] (PC-3 tumor uptake with BBN blocking, 1 h, co-injected Aca-BBN(7-14) 15 mg/kg), 1.61 ± 0.57 %ID/g; in series [1] (PC-3 tumor uptake with RGD+BBN blocking, 1 h, co-injected RGD 10 mg/kg and BBN 15 mg/kg), 0.42 ± 0.1 %ID/g; in series [2] (3.7 MBq, MDA-MB435 tumor uptake) it was 3.23 ± 0.86 %ID/g. Also, the tissue uptake at 1 h in series [2] (MDA-MB-435 tumor uptake) was 2.24 ± 0.73 %ID/g; in series [3] (1 h) it was 2.78 ± 0.87 %ID/g. Moreover, the tissue uptake at 0.5 h in series [1] (PC-3 tumor uptake) was 6.55 ± 0.83 %ID/g; in series [1] (setting [4]), 6.7 %ID/g; in series [1] (liver uptake (highest)), approximately 2 %ID/g; in series [3] (0.5 h) it was 3.91 ± 1.13 %ID/g. Moreover, the tissue uptake at 2 h in series [1] (PC-3 tumor uptake) was 4.04 ± 0.28 %ID/g; in series [1] (setting [5]), 3.75 %ID/g; in series [2] (MDA-MB-435 tumor uptake), 1.84 ± 0.72 %ID/g; in series [3] (2 h) it was 2.42 ± 0.29 %ID/g. Further, in series [1] (setting [4]), the tissue uptake at 5 min came out at 5.56 %ID/g. In series [1] (setting [4]), the tissue uptake at 0.25 h is 6.68 %ID/g.
